The experiment deals with Glutamate receptor (Oryctolagus cuniculus, UniProt G1SXH9).

SMILES strings stand for the structures. Bounds are passed on as bounds.

Glutamate receptor, sequence (G1SXH9 whole entry): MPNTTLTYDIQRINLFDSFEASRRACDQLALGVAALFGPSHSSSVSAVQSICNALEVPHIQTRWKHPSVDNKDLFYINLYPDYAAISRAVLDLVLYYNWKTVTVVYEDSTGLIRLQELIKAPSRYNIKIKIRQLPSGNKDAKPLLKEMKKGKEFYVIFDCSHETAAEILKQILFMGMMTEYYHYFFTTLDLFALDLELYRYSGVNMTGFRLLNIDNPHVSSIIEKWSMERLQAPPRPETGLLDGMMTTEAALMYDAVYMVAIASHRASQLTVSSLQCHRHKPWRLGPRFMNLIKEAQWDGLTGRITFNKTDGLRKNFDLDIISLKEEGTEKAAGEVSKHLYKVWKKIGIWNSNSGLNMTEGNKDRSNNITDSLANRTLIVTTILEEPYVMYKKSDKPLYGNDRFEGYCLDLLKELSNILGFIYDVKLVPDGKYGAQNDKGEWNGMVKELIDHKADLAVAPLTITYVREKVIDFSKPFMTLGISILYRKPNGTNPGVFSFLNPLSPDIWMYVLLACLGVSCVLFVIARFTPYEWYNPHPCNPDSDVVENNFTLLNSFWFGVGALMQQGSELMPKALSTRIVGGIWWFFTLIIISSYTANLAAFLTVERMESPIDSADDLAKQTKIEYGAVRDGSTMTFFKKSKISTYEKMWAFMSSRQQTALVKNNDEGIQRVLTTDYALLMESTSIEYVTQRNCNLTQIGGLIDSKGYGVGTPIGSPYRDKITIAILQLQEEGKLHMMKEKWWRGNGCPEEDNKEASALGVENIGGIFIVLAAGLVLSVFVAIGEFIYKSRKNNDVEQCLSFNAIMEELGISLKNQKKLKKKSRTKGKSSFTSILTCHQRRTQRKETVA

`N[C@@H](Cn1oc(=O)[nH]c1=O)C(=O)O` [2-amino-3-(3,5-dioxo[1,2,4]oxadiazolidin-2-yl)propionic acid]: the Ki turned out to be 16.5 nM.

For `N[C@@H](Cn1cc(F)c(=O)[nH]c1=O)C(=O)O` [(S)-5-Fluorowillardiine], the Ki was greater than 10000 nM.

Compound `CN[C@H](CC(=O)O)C(=O)O` [NMDA] registered a Ki greater than 10000 nM.

Compound `C/C(=C\C=C\[C@@H](C)C(=O)O)[C@H]1CN[C@H](C(=O)O)[C@H]1CC(=O)O` registered a Ki of 0.71 nM.

`N#Cc1cc2nc(O)c(O)nc2cc1[N+](=O)[O-]` [7-Cyano-3-hydroxy-6-nitro-quinoxalin-2-ol anion] yielded an inhibition constant Ki of 2150 nM. This Ki is about 3000-fold higher than that of the compound before.

These data come from BindingDB's records for doi:10.1016/s0028-3908(97)00161-5 (University of Bristol, 1997).
